For 8 compounds, Activity and EC50 results are on record in ChEMBL document CHEMBL3045444, “Synthesis of Stereoisomers of Ipconazole and Their Fungicidal and Plant Growth Inhibitory Activities” (J Pestic Sci, 1997).

In data set [1] the test system is Fusarium fujikuroi. As to the kind of experiment: Antifungal activity against Fusarium fujikuroi infected in rice plant assessed as control of bakanae disease at 75 ug/ml treated as seed treatment after 2 weeks. The class given is functional.
The subject of data set [2] is Fusarium fujikuroi. As to the kind of experiment: Antifungal activity against Fusarium fujikuroi infected in rice plant assessed as control of bakanae disease at 300 ug/ml treated as seed treatment after 2 weeks. The data set is classed as functional.
The next data set relates to Pyricularia oryzae. Kind of data set: Antifungal activity against Magnaporthe oryzae after 3 days. The data set is classed as functional, organism-based.
Data set [3] concerns Bipolaris oryzae. Kind of data set: Antifungal activity against Bipolaris oryzae after 3 days. The class given is functional, organism-based.
The subject of data set [4] is Fusarium fujikuroi. Kind of data set: Antifungal activity against Fusarium fujikuroi after 3 days. The data set is classed as functional, organism-based.
For a further data set, the system named is Oryza sativa. As to the kind of experiment: Growth inhibition of Oryza sativa (rice) assessed as growth rate by measuring first sheath length at 250 ug/ml treated as seed treatment 24 hr before emergence measured after 10 days relative to control. The class given is organism-based. On the set-up: scale not given: the % may be the effect or the level left. The settings on record: in vivo, 240 h.

For data set [5], the system named is Bipolaris oryzae. As to the kind of experiment: Antifungal activity against Bipolaris oryzae infected in fifth-leaf stage of rice plant assessed as control of brown spot disease at 9 ug/ml treated as foliar application after 6 days. The class given is functional.
Data set [6] deals with Bipolaris oryzae. Kind of data set: Antifungal activity against Bipolaris oryzae infected in fifth-leaf stage of rice plant assessed as control of brown spot disease at 38 ug/ml treated as foliar application after 6 days. The data set is classed as functional.
The subject of data set [7] is Bipolaris oryzae. Kind of data set: Antifungal activity against Bipolaris oryzae infected in fifth-leaf stage of rice plant assessed as control of brown spot disease at 150 ug/ml treated as foliar application after 6 days. The data set is classed as functional.
The subject of data set [8] is Fusarium fujikuroi. Kind of data set: Antifungal activity against Fusarium fujikuroi infected in rice plant assessed as control of bakanae disease at 18 ug/ml treated as seed treatment after 2 weeks. The class given is functional.
[9] abbreviates: Pyricularia oryzae, 72 h, read-out: EC50.
[10] abbreviates: Bipolaris oryzae, 72 h, read-out: EC50.
Where [11] appears, read: Fusarium fujikuroi, 72 h, read-out: EC50.

Structures are written as SMILES. ≈ marks a conversion by molar mass, not a printed value.

For `CC(C)[C@@H]1CC[C@@H](Cc2ccc(Cl)cc2)[C@@]1(O)Cn1cncn1` (racemic), the Activity is reported as 59.1% in the data set with Fusarium fujikuroi [1]; 95.2% in the data set on Fusarium fujikuroi [2]; 91.7% with Oryza sativa; 25% in the data set with Bipolaris oryzae [5]; 49% in the data set with Bipolaris oryzae [6]; 92% with Bipolaris oryzae [7]. Moreover, in the data set on Fusarium fujikuroi [8], the Activity is 0%. The EC50 in the data set on Pyricularia oryzae (setting [9]) amounted to 0.5 mg/L (≈ 1.5 µM); in the data set on Bipolaris oryzae [3] (setting [10]), 1 mg/L (≈ 3 µM); in the data set with Fusarium fujikuroi [4] (setting [11]), 0.9 mg/L (≈ 2.7 µM).
For `CC(C)[C@@H]1CC[C@H](Cc2ccc(Cl)cc2)[C@@]1(O)Cn1cncn1`, the half-maximal effective concentration (EC50) in the data set on Pyricularia oryzae (setting [9]) turned out to be 0.04 mg/L (≈ 0.12 µM); in the data set with Bipolaris oryzae [3] (setting [10]) it was 0.2 mg/L (≈ 0.599 µM); with Fusarium fujikuroi [4] (setting [11]) it was 0.03 mg/L (≈ 0.0899 µM).
On to `CC(C)[C@H]1CC[C@H](Cc2ccc(Cl)cc2)[C@@]1(O)Cn1cncn1`, for which the results for the concentration giving a half-maximal response (EC50) in the data set with Pyricularia oryzae, in the data set on Bipolaris oryzae [3] (setting [10]) and with Fusarium fujikuroi [4] (setting [11]) were 0.01 mg/L (≈ 0.03 µM), 0.2 mg/L (≈ 0.599 µM) and 0.03 mg/L (≈ 0.0899 µM), respectively.
With `CC(C)[C@H]1CC[C@H](Cc2ccc(Cl)cc2)[C@@]1(O)Cn1cncn1` (racemic), the Activity in the data set on Fusarium fujikuroi [1] was 97.5%; with Fusarium fujikuroi [2], 99.6%; with Oryza sativa, 90.7%; in the data set on Bipolaris oryzae [5], 71%; with Bipolaris oryzae [6], 98%; with Bipolaris oryzae [7], 100%. Also, the Activity in the data set with Fusarium fujikuroi [8] amounted to 52.1%. Besides, the EC50 in the data set with Pyricularia oryzae is 0.03 mg/L (≈ 0.0899 µM); with Bipolaris oryzae [3], 0.4 mg/L (≈ 1.2 µM); in the data set on Fusarium fujikuroi [4], 0.06 mg/L (≈ 0.18 µM).
As for `CC(C)[C@H]1CC[C@@H](Cc2ccc(Cl)cc2)[C@]1(O)Cn1cncn1`, the EC50 in the data set with Pyricularia oryzae (setting [9]) came out at 1 mg/L (≈ 3 µM); in the data set on Bipolaris oryzae [3] (setting [10]), 6 mg/L (≈ 18 µM); in the data set with Fusarium fujikuroi [4] (setting [11]) it was 10 mg/L (≈ 30 µM).
For the compound `CC(C)[C@@H]1CC[C@H](Cc2ccc(Cl)cc2)[C@@]1(O)Cn1cncn1` (racemic), the Activity in the data set with Fusarium fujikuroi [1] is 96.5%; in the data set on Fusarium fujikuroi [2], 98.7%; with Oryza sativa, 98.3%; with Bipolaris oryzae [5], 86%; with Bipolaris oryzae [6] it was 84%; with Bipolaris oryzae [7], 100%. Besides, the Activity in the data set on Fusarium fujikuroi [8] amounted to 61.2%. The EC50 in the data set with Pyricularia oryzae amounted to 0.08 mg/L (≈ 0.24 µM); in the data set on Bipolaris oryzae [3], 0.4 mg/L (≈ 1.2 µM); with Fusarium fujikuroi [4], 0.05 mg/L (≈ 0.15 µM).
As for `CC(C)[C@H]1CC[C@@H](Cc2ccc(Cl)cc2)[C@@]1(O)Cn1cncn1` (racemic), the Activity with Fusarium fujikuroi [1] was found to be 76.8%; in the data set with Fusarium fujikuroi [2], 97.5%; in the data set on Oryza sativa, 82.5%; in the data set with Bipolaris oryzae [5] it was 53%; with Bipolaris oryzae [6] it was 74%; in the data set with Bipolaris oryzae [7] it was 100%. Also, the Activity with Fusarium fujikuroi [8] amounted to 9.7%. In addition, the figures for the concentration for a half-maximal effect (EC50) in the data set on Pyricularia oryzae (setting [9]), with Bipolaris oryzae [3] (setting [10]) and in the data set on Fusarium fujikuroi [4] (setting [11]) were 0.04 mg/L (≈ 0.12 µM), 0.5 mg/L (≈ 1.5 µM) and 0.09 mg/L (≈ 0.27 µM), respectively.
Turning to `CC(C)[C@@H]1CC[C@@H](Cc2ccc(Cl)cc2)[C@]1(O)Cn1cncn1`, the EC50 stood at 0.7 mg/L (≈ 2.1 µM) with Pyricularia oryzae (setting [9]), 3 mg/L (≈ 8.99 µM) in the data set on Bipolaris oryzae [3] (setting [10]) and 6 mg/L (≈ 18 µM) with Fusarium fujikuroi [4] (setting [11]).
